Key:
[1] = system: Botrytis cinerea; experiment: In vivo preventive test on Botrytis cinerea (grey mould); details: 500 ppm of active ingredient, sprayed on young gherkin or cabbage plants 24 h before inoculation, evaluated 4 to 5 days after inoculation, read-out: efficacy
Experimental: (§1) The active ingredients were made soluble and homogenized in a mixture of Dimethyl sulfoxide/Acetone//Tween® 80 and then diluted in water to the desired concentration. The young plants of gherkin or cabbage were treated by spraying the active ingredient prepared as described above. Control plants were treated only with an aqueous solution of Acetone/Dimethyl sulfoxide/Tween® 80. After 24 hours, the plants were contaminated by spraying the leaves with an aqueous suspension of Botrytis cinerea spores.

[2] = system: Colletotrichum lindemuthianum; experiment: In vivo preventive test on Colletotrichum lindemuthianum (leaf spot on bean); details: 168 h, 500 ppm of active ingredient, sprayed on young bean plants 24 h before inoculation, evaluated 7 days after inoculation, read-out: efficacy
Experimental: as §1, with “B-4. […] The active” for “The active”, “plants of bean were treated” for “plants of gherkin or cabbage were treated”, “suspension of Colletotrichum lindemuthianum spores.” for “suspension of Botrytis cinerea spores.”

[3] = Measurement of Log P values by HPLC on reversed phase columns (EEC directive 79/831 Annex V.A8); type: physicochemical; details: Table 1, compounds of formula (I); method [a]: LC-UV, acidic range, 0.1% formic acid in water and acetonitrile
[4] = system: Colletotrichum lindemuthianum; experiment: Colletotrichum lindemuthianum in vitro cell test; type: cell-based; details: 144 h, liquid culture, 6 days incubation, read-out: efficacy (inhibition of fungal growth); for inhibition at 20 ppm: 20 ppm of active ingredient; for inhibition at 50 µM: 50 μMol/l of active ingredient
Summary of the method: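 C. lindemuthianum spores in liquid glucose–peptone–yeast extract medium were exposed to compounds dissolved in DMSO. After 6 days, mycelial growth was measured by absorbance, and inhibition was calculated against compound-free control wells.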

[5] = system: Alternaria brassicae; experiment: In vivo preventive test on Alternaria brassicae (leaf spot on radish or cabbage); details: 500 ppm of active ingredient, sprayed on young radish or cabbage plants 24 h before inoculation, evaluated 3 to 4 days after inoculation, read-out: efficacy
Experimental: as §1, with “B-1. […] The active” for “The active”, “plants of radish or cabbage” for “plants of gherkin or cabbage”, “suspension of Alternaria brassicae spores.” for “suspension of Botrytis cinerea spores.”

[6] = system: Botrytis cinerea; experiment: Botrytis cinerea in vitro cell test; type: cell-based; details: 144 h, 50 μMol/l of active ingredient, liquid culture, 6 days incubation, read-out: efficacy (inhibition of fungal growth)
Summary of the method: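 Compounds from DMSO stocks added at a range of concentrations to a defined mineral-salt/sucrose liquid medium inoculated with B. cinerea spores. After 6 days' incubation, mycelium growth was read by absorbance; inhibition of germination and growth was calculated against fungicide-free control wells.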

[7] = system: Pyrenophora teres; experiment: Pyrenophora teres in vitro cell test; type: cell-based; details: 144 h, 50 μMol/l of active ingredient, liquid culture, 6 days incubation, read-out: efficacy (inhibition of fungal growth)
Experimental: (§2) B-8. Pyrenophora teres In Vitro Cell Test • Solvent: DMSO • Culture medium: 14.6 g anhydrous D-glucose (VWR), 7.1 g Mycological Peptone (Oxoid), 1.4 g granulated Yeast Extract (Merck), QSP 1 liter • Inoculum: spore suspension Fungicides were solubilized in DMSO and the solution used to prepare the required range of concentrations. […] A spore suspension of P. teres was prepared and diluted to the desired spore density. Fungicides were evaluated for their ability to inhibit spore germination and mycelium growth in liquid culture assay. The compounds were added in the desired concentration to the culture medium with spores. After 6 days incubation, fungi-toxicity of compounds was determined by spectrometric measurement of mycelium growth. Inhibition of fungal growth was determined by comparing the absorbance values in wells containing the fungicides with the absorbance in control wells without fungicides.

[8] = system: Pyricularia oryzae; experiment: microbe, parasite or virus in culture; type: cell-based; details: 120 h, read-out: efficacy (inhibition of fungal growth), 50 μMol/l of active ingredient, liquid culture, 5 days incubation
[9] = system: Alternaria alternata; experiment: Alternaria alternata in vitro cell test; type: cell-based; details: 120 h, 50 μMol/l of active ingredient, liquid culture, 5 days incubation, read-out: efficacy (inhibition of fungal growth)
Experimental: as §2, with “B-5. Alternaria alternata In” for “B-8. Pyrenophora teres In”, “Inoculum: spores” for “Inoculum: spore”, “of A. alternata” for “of P. teres”, “After 5” for “After 6”

[10] = system: Fusarium culmorum; experiment: Fusarium culmorum in vitro cell test; type: cell-based; details: 120 h, 50 μMol/l of active ingredient, liquid culture, 5 days incubation, read-out: efficacy (inhibition of fungal growth)
Experimental: B-10. Fusarium culmorum In Vitro Cell Test • Solvent: DMSO • Culture medium: 1 g KH2PO4 (VWR), 1 g K2HPO4 (VWR), 0.5 g Urea (VWR), 3 g KNO3 (Prolabo), 10 g saccharose (VWR), 0.5 g MgSO4, 7H2O (Sigma), 0.07 g CaCl2, 2H2O (Prolabo), 0.2 mg MnSO4, H2O (Sigma), 0.6 mg CuSO4, 5H2O (Sigma), 7.9 mg ZnSO4, 7H2O (Sigma), 0.1 mg H3BO3 (Merck), 0.14 mg NaMoO4, 2H2O (Sigma), 2 mg thiamine (Sigma), 0.1 mg biotine (VWR), 4 mg FeSO4, 7H2O (Sigma), QSP 1 liter • Inoculum: spores suspension
Fungicides were solubilized in DMSO and the solution used to prepare the required range of concentrations. The final concentration of DMSO used in the assay was ≤1%.
A spore suspension of F. culmorum was prepared and diluted to the desired spore density.
Fungicides were evaluated for their ability to inhibit spore germination and mycelium growth in liquid culture assay. The compounds were added in the desired concentration to the culture medium with spores. After 5 days incubation, fungi-toxicity of compounds was determined by spectrometric measurement of mycelium growth. Inhibition of fungal growth was determined by comparing the absorbance values in wells containing the fungicides with the absorbance in control wells without fungicides.

SMILES	pest or weed control at 500 ppm [1] [%]	pest or weed control at 500 ppm [2] [%]	chromatographic logP [3]	inhibition at 20 ppm [4] [%]	pest or weed control at 500 ppm [5] [%]	inhibition at 50 µM [6] [%]	inhibition at 50 µM [4] [%]	inhibition at 50 µM [7] [%]	inhibition at 50 µM [8] [%]	inhibition at 50 µM [9] [%]	inhibition at 50 µM [10] [%]
FC(F)(F)c1ccc(Sc2nnc(Cl)cc2C2=NOC[C@@H](Cc3ccc(Cl)cc3Cl)N2)cc1 (racemic) [Compound I-003]	90 to 100	70 to 79	4.93	–	–	–	–	–	–	–	–
Cc1ccc(C[C@H]2CON=C(c3nc(C)ncc3Sc3cccc(OC(F)(F)F)c3)N2)c(Cl)c1 (racemic) [Compound I-021]	–	70 to 79	5.46	70 to 79	–	–	–	–	–	–	–
Cc1ccc(C[C@H]2CON=C(c3nc(C)ncc3Sc3cccc(OC(F)(F)F)c3)N2)c(C)c1 (racemic) [Compound I-026]	–	80 to 89	5.39	70 to 79	–	–	–	–	–	–	–
Cc1ccc(C[C@@H]2CON=C(c3cc(Cl)nnc3Sc3ccc(C(F)(F)F)cc3)N2)c(C)c1 (racemic) [Compound I-027]	–	90 to 100	5.31	–	90 to 100	–	–	–	–	–	–
Cc1ccc([C@@H]2CON=C(c3c(Sc4cccc(C(F)(F)F)c4)nnc(C)c3C)N2)s1 (racemic) [Compound I-044]	90 to 100	90 to 100	3.36	–	–	90 to 100	90 to 100	90 to 100	80 to 89	70 to 79	–
Cc1cc([C@H]2CON=C(c3c(Sc4cccc(F)c4)nnc(C)c3C)N2)c(C)s1 (racemic) [Compound I-050]	90 to 100	–	3.16	–	90 to 100	90 to 100	90 to 100	90 to 100	90 to 100	90 to 100	90 to 100
Cc1cc([C@H]2CON=C(c3c(Sc4ccccc4Cl)nnc(C)c3C)N2)c(C)s1 (racemic) [Compound I-059]	90 to 100	–	3.31	–	90 to 100	90 to 100	–	90 to 100	–	80 to 89	–
Cc1cccc(Sc2nnc3ccccc3c2C2=NOC[C@H](c3ccc(C)s3)N2)n1 (racemic) [Compound I-066]	90 to 100	70 to 79	2.69	–	80 to 89	90 to 100	90 to 100	–	70 to 79	–	70 to 79
Cc1ccc([C@H]2CON=C(c3c(Sc4ccccc4Cl)nnc4ccccc34)N2)s1 (racemic) [Compound I-067]	90 to 100	–	3.4	–	90 to 100	90 to 100	80 to 89	90 to 100	70 to 79	90 to 100	–
COc1cccc(Sc2nnc(C)c(C)c2C2=NOC[C@@H](c3cc(C)sc3C)N2)c1 (racemic) [Compound I-079]	90 to 100	80 to 89	3.11	–	–	90 to 100	90 to 100	80 to 89	70 to 79	70 to 79	90 to 100
COc1cccc(Sc2nnc3ccccc3c2C2=NOC[C@H](c3ccc(C)s3)N2)c1 (racemic) [Compound I-090]	90 to 100	80 to 89	3.21	–	–	90 to 100	90 to 100	80 to 89	–	–	90 to 100
Cc1cc([C@H]2CON=C(c3c(Sc4ccc(F)c(F)c4)nnc(C)c3C)N2)c(C)s1 (racemic) [Compound I-091]	90 to 100	–	3.33	–	80 to 89	90 to 100	90 to 100	90 to 100	80 to 89	80 to 89	90 to 100
Cc1cccc(Sc2nnc(C)c(C)c2C2=NOCC(c3ccc(C)s3)N2)c1 (racemic) [Compound I-095, (5RS)-3-[5,6-dimethyl-3-(m-tolylsulfanyl)pyridazin-4-yl]-5-(5-methyl-2-thienyl)-5,6-dihydro-4H-1,2,4-oxadiazine]	90 to 100	70 to 79	2.99	–	90 to 100	90 to 100	90 to 100	–	70 to 79	–	70 to 79
Cc1ccc([C@H]2CON=C(c3c(Sc4ccccc4)nnc4ccccc34)N2)s1 (racemic) [Compound I-097]	90 to 100	–	3.14	–	80 to 89	90 to 100	90 to 100	90 to 100	80 to 89	80 to 89	80 to 89
Cc1ccc([C@H]2CON=C(c3c(Sc4ccccc4C)nnc4ccccc34)N2)s1 (racemic) [Compound I-110]	90 to 100	70 to 79	3.45	–	90 to 100	90 to 100	–	–	–	–	–
Cc1ccc([C@H]2CON=C(c3c(Sc4cccc(F)c4)nnc(C)c3C)N2)s1 (racemic) [Compound I-125]	–	–	2.83	–	–	90 to 100	90 to 100	80 to 89	80 to 89	70 to 79	90 to 100
Cc1ccc([C@H]2CON=C(c3c(Sc4cccc(Cl)c4Cl)nnc4ccccc34)N2)s1 (racemic) [Compound I-131]	90 to 100	–	3.8	–	90 to 100	90 to 100	90 to 100	90 to 100	80 to 89	90 to 100	–

— patent US20250042886A1, “BIS(HETERO)ARYL THIOETHER OXADIAZINES AS FUNGICIDAL COMPOUNDS” (Bayer Aktiengesellschaft, priority 2021, published 2025)
